For 10 compounds, TGI and GI50 results are on record in PubChem BioAssay (NCI).

Some test systems named below: DMS 114 small cell lung; DMS 273 small cell lung; HOP-18 NSCLC; LXFL 529 NSCLC; M19-MEL melanoma; SNB-78 CNS; DU-145 prostate; MDA-MB-435; PC-3 prostate; T-47D breast; BT-549 breast; HS 578T breast; MDA-N; MDA-MB-231 breast.
Assay in all cases: DTP human tumour cell line panel, 48 h

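Results reflect a 48-hour exposure of cells in 96-well plates to compound at five concentrations. GI50 = concentration required for 50% inhibition of growth. TGI denotes the concentration required for complete inhibition of growth.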

Usually TGI stands for the concentration at which net growth stops. A higher TGI goes with lower sensitivity of the cells. Turning to `Cc1ccc(CCC(=O)C(=O)O)s1`, the TGI in the assay on DMS 114 small cell lung, in the assay on DMS 273 small cell lung, with HOP-18 NSCLC, in the assay on LXFL 529 NSCLC, in the assay with M19-MEL melanoma and in the assay on SNB-78 CNS was greater than 100 µM each time.

As a reminder, the GI50 is the concentration that inhibits growth by half. Regarding `COc1ccc2nc3cc(Cl)ccc3c(NCCNc3c4ccc(Cl)cc4nc4ccc(OC)cc34)c2c1`, the GI50 with DU-145 prostate was 1.68 µM; in the assay on MDA-MB-435, 1.76 µM; in the assay with PC-3 prostate it was 1.83 µM; in the assay with T-47D breast, 1.89 µM. Further, the TGI was determined as 3.08 µM in the assay on DU-145 prostate, 3.21 µM in the assay on MDA-MB-435, 3.45 µM with PC-3 prostate and 3.94 µM in the assay with T-47D breast.

`CCCCNC(=O)/N=C/c1c(O)c2ccccc2oc1=O`: the TGI in the assay with DMS 114 small cell lung, with DMS 273 small cell lung, in the assay with LXFL 529 NSCLC, in the assay with M19-MEL melanoma and in the assay on SNB-78 CNS was greater than 100 µM throughout.

In the case of `COc1ccc(Sc2ccccc2N)cc1`, the TGI in the assay with DMS 114 small cell lung is greater than 100 µM; in the assay with DMS 273 small cell lung it was greater than 100 µM; with HOP-18 NSCLC, greater than 100 µM; with LXFL 529 NSCLC it was greater than 100 µM; in the assay on M19-MEL melanoma, greater than 100 µM; in the assay with SNB-78 CNS, 97.3 µM.

Regarding `COC(=O)C(NC(=O)c1ccccc1)C(c1ccc(Cl)cc1)P(=O)(OC)OC` (stereo not given), the TGI in the assay on DMS 273 small cell lung, in the assay with LXFL 529 NSCLC, with M19-MEL melanoma and in the assay with SNB-78 CNS was greater than 100 µM throughout.

Consider `NCCCNCCCCN1CC1`, for which the TGI with BT-549 breast is greater than 20.5 µM; in the assay with DU-145 prostate, 6.17 µM; with HS 578T breast, 66.5 µM; with MDA-MB-435 it was greater than 100 µM; in the assay with MDA-N, greater than 100 µM; with PC-3 prostate, greater than 34.9 µM. Also, the TGI in the assay with T-47D breast turned out to be 1.02 µM.

Turning to `COc1ccc(N2NC(c3ccccc3)(c3ccccc3)C(C)C2=O)cc1` (stereo not given), the TGI with BT-549 breast, in the assay on DU-145 prostate, in the assay on HS 578T breast, in the assay on MDA-MB-231 breast, with MDA-MB-435 and in the assay with MDA-N was greater than 100 µM throughout. Moreover, the TGI in the assay with PC-3 prostate and in the assay on T-47D breast was greater than 100 µM each time.

In the case of `COc1ccc(-c2nn(-c3ccc(NC(=O)Nc4ccc(Cl)c(C(F)(F)F)c4)cc3)cc2-c2ccncc2)cc1Cl`, the GI50 is 3.07 µM in the assay on DU-145 prostate; 1.1 µM in the assay on HS 578T breast; 1.2 µM in the assay on MDA-MB-231 breast; 1.79 µM in the assay with MDA-MB-435; 0.793 µM in the assay on PC-3 prostate; 2.72 µM in the assay with T-47D breast. The TGI with DU-145 prostate stood at 20.6 µM; in the assay with HS 578T breast it was 4.22 µM; in the assay with MDA-MB-231 breast it was 2.67 µM; with MDA-MB-435 it was 4.8 µM; with PC-3 prostate, 5.49 µM; with T-47D breast, 7.73 µM.

Consider `CN(C)/N=N/c1nc[nH]c1C(N)=O`, for which the total growth inhibition concentration (TGI) with BT-549 breast was greater than 1000 µM; in the assay with DMS 114 small cell lung, 96.8 µM; with DMS 273 small cell lung it was 88.3 µM; with DU-145 prostate, greater than 1000 µM; in the assay with HOP-18 NSCLC, 39.2 µM; in the assay with HS 578T breast, greater than 1000 µM. Besides, the TGI with M19-MEL melanoma is greater than 94.7 µM; in the assay with MDA-MB-231 breast, greater than 1000 µM; in the assay with MDA-MB-435, greater than 1000 µM; with MDA-N it was greater than 1000 µM; with PC-3 prostate it was greater than 1000 µM; in the assay on T-47D breast, greater than 464 µM. Moreover, the GI50 in the assay on DU-145 prostate was 51.2 µM; in the assay on MDA-MB-435, 31.4 µM; in the assay on PC-3 prostate, 77.2 µM; in the assay with T-47D breast it was 77.3 µM.

In the case of `COC1OC2=CCC3C(=O)NC(=O)C3C2[C@H](OCc2ccccc2)C1OCc1ccccc1` (stereo not given in full), the TGI in the assay with HOP-18 NSCLC was 6.37 µM; with LXFL 529 NSCLC, 3.09 µM; with SNB-78 CNS it was 4.12 µM.
